# Assay results reported in patent publication US20170190671A1, “BIS(ARYL)CATECHOL DERIVATIVES AS HERBICIDES” (E I DU PONT DE NEMOURS AND COMPANY, priority 2014, published 2017).
# Experiments:
# Assay in all cases: Test E preemergence
# Assay type in all cases: in vivo
# Settings in all cases: scale 0 to 100
# [1] = test system: yellow nutsedge (Cyperus esculentus)
# Excerpt: (§1) Seeds of plant species selected from corn (Zea mays), soybean (Glycine max), velvetleaf (Abutilon theophrasti), cocklebur (common cocklebur, Xanthium strumarium), lambsquarters (Chenopodium album), wild poinsettia (Euphorbia heterophylla), palmer pigweed (Amaranthus palmeri), waterhemp (common waterhemp, Amaranthus rudis), surinam grass (Brachiaria decumbens), large (Lg) crabgrass (Digitaria sanguinalis), Brazilian crabgrass (Digitaria horizontalis), fall panicum (Panicum dichotomiflorum), giant foxtail (Setaria faberii), green foxtail (Setaria viridis), goosegrass (Eleusine indica), johnsongrass (Sorghum halepense), ragweed (common ragweed, Ambrosia elatior), barnyardgrass (Echinochloa crus-galli), sandbur (southern sandbur, Cenchrus echinatus), arrowleaf sida (Sida rhombifolia), Italian ryegrass (Lolium multiflorum), dayflower (Virginia (VA) dayflower, Commelina virginica), field bindweed (Convolvulus arvensis), morningglory (Ipomoea coccinea), nightshade (eastern black nightshade, Solanum ptycanthum), kochia (Kochia scoparia), yellow nutsedge (Cyperus esculentus), horseweed (Conyza canadensis), and hairy beggarticks (Bidens pilosa), were planted into a silt loam soil and treated preemergence with test chemicals formulated in a non-phytotoxic solvent mixture which included a surfactant.
# (§2) At the same time, plants from these crop and weed species and also waterhemp_RES1, (ALS & Triazine resistant common waterhemp, Amaranthus rudis), and waterhemp_RES2, (ALS & HPPD resistant common waterhemp, Amaranthus rudis) were planted in pots containing Redi-Earth® planting medium (Scotts Company, 14111 Scottslawn Road, Marysville, Ohio 43041) comprising spaghnum peat moss, vermiculite, wetting agent and starter nutrients were treated with postemergence applications of test chemicals formulated in the same manner. Plants ranged in height from 2 to 18 cm for postemergence treatments (1- to 4-leaf stage). Treated plants and controls were maintained in a greenhouse for 14 to 21 days, after which time all species were compared to controls and visually evaluated. Plant response ratings, summarized in Table E, are based on a scale of 0 to 100 where 0 is no effect and 100 is complete control. A dash (-) response means no test result.
# [2] = test system: dayflower (Virginia (VA) dayflower, Commelina virginica)
# Excerpt: as §1, §2
# [3] = test system: barnyardgrass (Echinochloa crus-galli)
# Excerpt: as §1, §2
# [4] = test system: waterhemp (common waterhemp, Amaranthus rudis)
# Excerpt: as §1, §2
# [5] = test system: Surinam grass (Brachiaria decumbens)
# Excerpt: as §1, §2
# [6] = test system: sandbur (southern sandbur, Cenchrus echinatus)
# Excerpt: as §1, §2
# [7] = test system: lambsquarters (Chenopodium album)
# Excerpt: as §1, §2
# [8] = test system: goosegrass (Eleusine indica)
# Excerpt: as §1, §2
# [9] = test system: hairy beggarticks (Bidens pilosa)
# Excerpt: as §1, §2
# [10] = test system: large (Lg) crabgrass (Digitaria sanguinalis)
# Excerpt: as §1, §2
# corn (Zea mays) = test system: corn (Zea mays)
# Excerpt: as §1, §2
# [11] = test system: nightshade (eastern black nightshade, Solanum ptycanthum)
# Excerpt: as §1, §2
# soybean (Glycine max) = test system: soybean (Glycine max)
# Excerpt: as §1, §2
# [12] = test system: giant foxtail (Setaria faberii)
# Excerpt: as §1, §2
# [13] = test system: fall panicum (Panicum dichotomiflorum)
# Excerpt: as §1, §2
# [14] = test system: arrowleaf sida (Sida rhombifolia)
# Excerpt: as §1, §2
# [15] = test system: green foxtail (Setaria viridis)
# Excerpt: as §1, §2
# [16] = test system: ragweed (common ragweed, Ambrosia elatior)
# Excerpt: as §1, §2
# [17] = test system: morningglory (Ipomoea coccinea)
# Excerpt: as §1, §2
# [18] = test system: Italian ryegrass (Lolium multiflorum)
# Excerpt: as §1, §2
# [19] = test system: palmer pigweed (Amaranthus palmeri)
# Excerpt: as §1, §2
structure (smiles),measurement,setting,value
"Fc1cccc(Oc2ncc(Cl)cn2)c1Oc1ncc(Cl)cn1 [Compound 21, 2,2′-[[3-fluoro-1,2-phenylene]bis(oxy)]bis[5-chloropyrimidine]]","Plant response rating, Nutsedge, Yellow",[1]; 16 g ai/ha,0
same,"Plant response rating, Nutsedge, Yellow",[1]; 31 g ai/ha,0
same,"Plant response rating, Nutsedge, Yellow",[1]; 62 g ai/ha,0
same,"Plant response rating, Nutsedge, Yellow",[1]; 125 g ai/ha,15
same,"Plant response rating, Dayflower, VA",[2]; 16 g ai/ha,0
same,"Plant response rating, Dayflower, VA",[2]; 31 g ai/ha,0
same,"Plant response rating, Dayflower, VA",[2]; 62 g ai/ha,25
same,"Plant response rating, Dayflower, VA",[2]; 125 g ai/ha,95
same,"Plant response rating, Barnyardgrass",[3]; 16 g ai/ha,15
same,"Plant response rating, Barnyardgrass",[3]; 31 g ai/ha,20
same,"Plant response rating, Barnyardgrass",[3]; 62 g ai/ha,65
same,"Plant response rating, Barnyardgrass",[3]; 125 g ai/ha,100
same,"Plant response rating, Waterhemp",[4]; 16 g ai/ha,65
same,"Plant response rating, Waterhemp",[4]; 31 g ai/ha,80
same,"Plant response rating, Waterhemp",[4]; 62 g ai/ha,100
same,"Plant response rating, Waterhemp",[4]; 125 g ai/ha,100
same,"Plant response rating, Surinam Grass",[5]; 16 g ai/ha,0
same,"Plant response rating, Surinam Grass",[5]; 31 g ai/ha,10
same,"Plant response rating, Surinam Grass",[5]; 62 g ai/ha,0
same,"Plant response rating, Surinam Grass",[5]; 125 g ai/ha,50
same,"Plant response rating, Sandbur",[6]; 16 g ai/ha,0
same,"Plant response rating, Sandbur",[6]; 31 g ai/ha,0
same,"Plant response rating, Sandbur",[6]; 62 g ai/ha,15
same,"Plant response rating, Sandbur",[6]; 125 g ai/ha,50
same,"Plant response rating, Lambsquarters",[7]; 16 g ai/ha,0
same,"Plant response rating, Lambsquarters",[7]; 31 g ai/ha,40
same,"Plant response rating, Lambsquarters",[7]; 62 g ai/ha,100
same,"Plant response rating, Lambsquarters",[7]; 125 g ai/ha,100
same,"Plant response rating, Goosegrass",[8]; 16 g ai/ha,10
same,"Plant response rating, Goosegrass",[8]; 31 g ai/ha,50
same,"Plant response rating, Goosegrass",[8]; 62 g ai/ha,75
same,"Plant response rating, Goosegrass",[8]; 125 g ai/ha,98
same,"Plant response rating, Beggarticks",[9]; 16 g ai/ha,0
same,"Plant response rating, Beggarticks",[9]; 31 g ai/ha,0
same,"Plant response rating, Beggarticks",[9]; 62 g ai/ha,0
same,"Plant response rating, Beggarticks",[9]; 125 g ai/ha,0
same,"Plant response rating, Crabgrass, Large",[10]; 16 g ai/ha,50
same,"Plant response rating, Crabgrass, Large",[10]; 31 g ai/ha,75
same,"Plant response rating, Crabgrass, Large",[10]; 62 g ai/ha,95
same,"Plant response rating, Crabgrass, Large",[10]; 125 g ai/ha,100
same,"Plant response rating, Corn",corn (Zea mays); 16 g ai/ha,0
same,"Plant response rating, Corn",corn (Zea mays); 31 g ai/ha,0
same,"Plant response rating, Corn",corn (Zea mays); 62 g ai/ha,10
same,"Plant response rating, Corn",corn (Zea mays); 125 g ai/ha,50
same,"Plant response rating, Nightshade",[11]; 16 g ai/ha,80
same,"Plant response rating, Nightshade",[11]; 31 g ai/ha,90
same,"Plant response rating, Nightshade",[11]; 62 g ai/ha,98
same,"Plant response rating, Nightshade",[11]; 125 g ai/ha,100
same,"Plant response rating, Soybean",soybean (Glycine max); 16 g ai/ha,0
same,"Plant response rating, Soybean",soybean (Glycine max); 31 g ai/ha,25
same,"Plant response rating, Soybean",soybean (Glycine max); 62 g ai/ha,65
same,"Plant response rating, Soybean",soybean (Glycine max); 125 g ai/ha,90
same,"Plant response rating, Foxtail, Giant",[12]; 16 g ai/ha,5
same,"Plant response rating, Foxtail, Giant",[12]; 31 g ai/ha,90
same,"Plant response rating, Foxtail, Giant",[12]; 62 g ai/ha,100
same,"Plant response rating, Foxtail, Giant",[12]; 125 g ai/ha,100
same,"Plant response rating, Panicum, Fall",[13]; 16 g ai/ha,35
same,"Plant response rating, Panicum, Fall",[13]; 31 g ai/ha,75
same,"Plant response rating, Panicum, Fall",[13]; 62 g ai/ha,100
same,"Plant response rating, Panicum, Fall",[13]; 125 g ai/ha,100
same,"Plant response rating, Arrowleaf Sida",[14]; 16 g ai/ha,90
same,"Plant response rating, Arrowleaf Sida",[14]; 31 g ai/ha,100
same,"Plant response rating, Arrowleaf Sida",[14]; 62 g ai/ha,100
same,"Plant response rating, Arrowleaf Sida",[14]; 125 g ai/ha,100
same,"Plant response rating, Foxtail, Green",[15]; 16 g ai/ha,15
same,"Plant response rating, Foxtail, Green",[15]; 31 g ai/ha,50
same,"Plant response rating, Foxtail, Green",[15]; 62 g ai/ha,70
same,"Plant response rating, Foxtail, Green",[15]; 125 g ai/ha,100
same,"Plant response rating, Ragweed",[16]; 16 g ai/ha,0
same,"Plant response rating, Ragweed",[16]; 31 g ai/ha,50
same,"Plant response rating, Ragweed",[16]; 62 g ai/ha,50
same,"Plant response rating, Ragweed",[16]; 125 g ai/ha,98
same,"Plant response rating, Morningglory",[17]; 16 g ai/ha,10
same,"Plant response rating, Morningglory",[17]; 31 g ai/ha,50
same,"Plant response rating, Morningglory",[17]; 62 g ai/ha,90
same,"Plant response rating, Morningglory",[17]; 125 g ai/ha,80
same,"Plant response rating, Ryegrass, Italian",[18]; 16 g ai/ha,0
same,"Plant response rating, Ryegrass, Italian",[18]; 31 g ai/ha,0
same,"Plant response rating, Ryegrass, Italian",[18]; 62 g ai/ha,35
same,"Plant response rating, Ryegrass, Italian",[18]; 125 g ai/ha,70
same,"Plant response rating, Pigweed, Palmer",[19]; 16 g ai/ha,0
same,"Plant response rating, Pigweed, Palmer",[19]; 31 g ai/ha,60
same,"Plant response rating, Pigweed, Palmer",[19]; 62 g ai/ha,100
same,"Plant response rating, Pigweed, Palmer",[19]; 125 g ai/ha,100
